This is an account of results in patent publication US20190084968A1, “FUMAGILLOL HETEROCYCLIC COMPOUNDS AND METHODS OF MAKING AND USING SAME” (Zafgen, Inc., priority 2015, published 2019).

Where a name gives a salt, the structure may show the parent alone. Where only a bound is given, the exact number is not on record here.

Series [1] has as its system Sprague Dawley rats on high fat diet (DIO). As to the kind of experiment: 11 day rat DIO model (body weight, food intake, hematology, blood chemistry). The series is classed as in vivo. Conditions: rat, in vivo, sc. An excerpt:
The objective of this study design is to investigate the efficacy of disclosed compounds in an 11 day rat DIO model used to screen compounds for pharmacologic efficacy on endpoints related to obesity and metabolism. Effects on body weight, food intake, hematology and blood chemistries were the primary readouts of this study design. […] Rats were fed Research Diets D12451 (45% High Fat) and provided water ad libitum. Rats were received and housed in the facility for at least two or three weeks prior to start of test article administration. On Day −4 or −3, rats were randomized into study groups based on body weight and body weights were continued to be recorded daily for the duration of the study. Daily food intake was assessed starting on Study Day −2 by weighing the hopper including the food to avoid loss of food in transfer.
(§1) Compounds were formulated into a 100% DMSO stock (at 9 mg/mL) prior to the start, and further diluted into the target working concentration using the vehicle of 10% DMSO in water. Prior to test article administration, starting on Day −3 a dosing acclimation occured with all animals receiving a subcutaneous injection of vehicle (10% DMSO) only for 3 days. Starting on Day 1, test compounds or vehicle were administered based on individual body weight, subcutaneously, once a day for 11 days. All animals were sacrificed on Day 11, approximately 2 hours following the final dosing on Day 11. After sacrifice, whole blood was collected and analyzed for hematology and blood chemistry parameters.
(§2) Compounds were tested vs. vehicle at various doses (1.0, 0.5, 0.3, 0.1, 0.03 mpk sc (mg per kg animal weight delivered subcutaneously), and the results are shown in Table 2 below.

The test system of series [2] is Diet Induced Obese (DIO) C57BL/6 mice. As to the kind of experiment: 10 day DIO mouse model (body weight, food intake, hematology, blood chemistry). The series is classed as in vivo. Conditions: mouse, in vivo, sc, 0.3 mg/kg.
From the text: The objective of this study design was to investigate the efficacy of disclosed compounds in a 10 day DIO mouse model. Effects on body weight, food intake, hematology and blood chemistry were the primary readouts of this study design. […] Mice were fed Research Diets D12492 (60% Kcal fat, 20% Kcal carbohydrate and 20% protein) and provided water ad libitum. DIO mice were received and housed in the facility for approximately two weeks prior to the start of test article administration. On Day −4 or −3, mice were randomized into study groups based on body weight and body weights were continued to be recorded daily for the duration of the study. Daily food intake was assessed starting on Study Day −2 by weighing of the food with hopper together to avoid loss of food in transfer.
as §1, with “for 10” for “for 11”, “All mice” for “All animals”, “11, 24” for “11, approximately 2”, “Day 10.” for “Day 11.”
as §2

The target in a further series is T1, recombinant human MetAP2 (Homo sapiens, UniProt P50579).
T1 construct: Flag; made in house
T1 sequence (P50579 whole entry): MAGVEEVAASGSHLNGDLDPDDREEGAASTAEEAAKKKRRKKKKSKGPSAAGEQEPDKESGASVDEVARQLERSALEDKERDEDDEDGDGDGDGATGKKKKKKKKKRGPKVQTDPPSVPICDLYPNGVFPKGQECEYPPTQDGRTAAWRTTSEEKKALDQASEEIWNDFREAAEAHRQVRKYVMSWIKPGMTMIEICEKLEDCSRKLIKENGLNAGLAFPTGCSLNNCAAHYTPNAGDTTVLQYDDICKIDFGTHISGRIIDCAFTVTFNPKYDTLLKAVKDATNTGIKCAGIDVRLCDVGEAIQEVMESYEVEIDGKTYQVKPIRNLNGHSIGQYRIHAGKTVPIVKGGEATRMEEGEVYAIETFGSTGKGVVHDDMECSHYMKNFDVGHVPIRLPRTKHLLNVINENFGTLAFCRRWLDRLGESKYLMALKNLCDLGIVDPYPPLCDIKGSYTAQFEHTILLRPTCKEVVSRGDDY
The series is described as follows: Recombinant human MetAP2 enzyme inhibition assay (MAS peptide / amino acid oxidase / Amplex UltraRed). It is filed as biochemical. The method, then: Compounds are tested for their capacity to inhibit recombinant human MetAP2 activity using the following assay.
Flag tagged Human recombinant MetAP2 expressed and isolated for use as the enzyme source. 10 mM stock solutions of compounds were prepared in 100% DMSO and further diluted in 100% DMSO required concentration to 1 mM stocks. The stock compound solutions and DMSO vehicle controls were diluted to target final compound concentrations using assay buffer to a final concentration of 50 mM HEPES containing 100 mM NaCl, pH adjusted to 7.5. The MAS peptide was formulated to a 7.5 mM stock in distilled water and prior to use further diluted 1:4. […] 40 μl of enzyme was mixed with 100 μl of MnCl2 then further diluted in assay buffer to a final concentration of 16 μg/ml. To test for compound effect on MetAP2 enzyme activity, 5 μl of test compound, 10 μl of MAS substrate/amino acid oxidase mixture, 10 μl of MetAP2 was added to test wells in a 384 well black plate with blank wells containing no enzyme, replaced with 10 μl of assay buffer. All compounds were tested in duplicate on two occasions on the same day.
The plate was sealed with a TopSeal A cover and mixed briefly on an orbital mixer at 900 rpm. The plate was incubated for a further 25 minutes at 25° C. A 5× stock of Amplex buffer was prepared (0.25M sodium phosphate, pH 7.4) and stored at 4° C. When preparing for use the stock was diluted with distilled water. […] 25 μl detection reagent was added to each well of the test plate, which was re-sealed and mixed briefly on an orbital shaker. […] At the end of the MetAP2 incubation 25 μl Amplex/HRP mixture per well was added and the plate read plate on a plate reader.

In series [3] the test system is embryo/fetal development in pregnant Sprague Dawley rats. Conditions: 6 mpk subcutaneously once every three days, Gestation Days 6-18, pregnant rats. The method, then:
The objective of this study design was to evaluate the potential effects of disclosed compounds on embryo/fetal development when given subcutaneously to pregnant rats once every three days during the critical period of organogenesis (Gestation Days 6-18). Female, Sprague Dawley rats, approximately 10 weeks of age, time bred, were ordered from a certified vendor and housed individually housed in stainless steel cages suspended over flush pans, on a 12-hour light-dark cycle (0700-1900) at 20-26° C. and 30-70% humidity. Rats were fed a standard rodent chow and provided water ad libitum. Rats were received and housed in the facility for a period of approximately 1 to 2 days.
Compounds were formulated using 100% DMSO mixed in Sterile Water for Injection, resulting in 2% DMSO solution in water. If necessary, due to limited solubility of a test article, a higher percentage of DMSO solution in water was used. Groups of 8 mated and presumed pregnant female rats were given subcutaneous doses of vehicle or test article, once every three days, beginning on Gestation Day 6 and ending on Gestation Day 18 (Days 6, 9, 12, 15, and 18), maintained two more days, and then euthanized and necropsied on Gestation Day 20. Body weights was recorded for all animals on Gestation Days 5 (purpose of randomization), 6, 9, 12, 15, 18, and 20 (scheduled euthanasia). Food consumption by weight was recorded on Gestation Days 6, 9, 12, 15, 18, and 20 (scheduled termination).
At necropsy, the dams were examined visually for external abnormalities including palpable masses. The abdominal, thoracic, and cranial cavities and their contents were examined for abnormalities and findings will be recorded. The reproductive tract were examined to record the number of ovarian corpora lutea, the number and location of uterine implantation sites noting the position of the cervix, and the number of early resorptions, late resorptions, live fetuses, and dead fetuses. For dead fetuses and late resorptions, crown-to-rump length and weight were recorded, if possible, and the fetus was discarded. For viable fetuses, weight, sex, and grossly visible external abnormalities were recorded.

In general, IC50 refers to the concentration needed to halve the response being measured. `CO[C@@H]1[C@H](OC(=O)N2CC(CCN3CC(O)C3)C2)CC[C@]2(CO2)[C@H]1[C@@]1(C)O[C@@H]1CC=C(C)C` [Example 6, (3R,4S,5S,6R)-5-methoxy-4-((2R,3R)-2-methyl-3-(3-methylbut-2-enyl)oxiran-2-yl)-1-oxaspiro[2.5]octan-6-yl 3-(2-(3-hydroxyazetidin-1-yl)ethyl)azetidine-1-carboxylate formate]: the results for the “DIO Rat 11-day weight loss vs vehicle at indicated dose” value in series [1] (0.3 mg/kg) and in series [1] (1 mg/kg) were 0.8% and 4.6%, respectively. Also, the “DIO Mouse 10-day weight loss vs vehicle at indicated dose” value (shortened to “DIO Mouse 10-day weight loss vs vehicle”) in series [2] came out at 11.8%. Further, at recombinant human MetAP2, the IC50 is less than 50 nM. In addition, the “Rat Embryofetal @6 mpk” value in series [3] is “Positive”.
`CO[C@@H]1[C@H](OC(=O)N2CC(CCN3CC(C)(O)C3)C2)CC[C@]2(CO2)[C@H]1[C@@]1(C)O[C@@H]1CC=C(C)C` [Example 9, (3R,4S,5S,6R)-5-methoxy-4-((2R,3R)-2-methyl-3-(3-methylbut-2-enyl)oxiran-2-yl)-1-oxaspiro[2.5]octan-6-yl 3-(2-(3-hydroxy-3-methylazetidin-1-yl)ethyl)azetidine-1-carboxylate formate]: the “DIO Rat 11-day weight loss vs vehicle at indicated dose” value in series [1] (0.3 mg/kg) was determined as 5.5%; in series [1] (1 mg/kg), 4.8%. In series [2], the “DIO Mouse 10-day weight loss vs vehicle” value turned out to be 7.4%. Besides, on recombinant human MetAP2, the IC50 was less than 50 nM. Moreover, in series [3], the “Rat Embryofetal @6 mpk” value was “Positive”.
Take `CO[C@@H]1[C@H](OC(=O)N2CC(CCN3CC4C(C3)C4(F)F)C2)CC[C@]2(CO2)[C@H]1[C@@]1(C)O[C@@H]1CC=C(C)C` (stereo partly drawn) [Example 22, (3R,4S,5S,6R)-5-methoxy-4-((2R,3R)-2-methyl-3-(3-methylbut-2-enyl)oxiran-2-yl)-1-oxaspiro[2.5]octan-6-yl 3-(2-(6,6-difluoro-3-azabicyclo[3.1.0]hexan-3-yl)ethyl)azetidine-1-carboxylate formate]: in series [2], the “DIO Mouse 10-day weight loss vs vehicle” value is 14%. Besides, the IC50 at recombinant human MetAP2 was less than 50 nM. In addition, in series [3], the “Rat Embryofetal @6 mpk” value is reported as “Negative”.
